Where two headings read alike, the source gives them in different places.
How the values were obtained:
[1] = system: MOLP-8 human multiple myeloma cell line; test: Caspase-Glo 3/7 apoptosis induction assay in MOLP-8 cells; assay type: cell-based; settings: averaged over all runs on all batches
Excerpt: MCL-1 is a regulator of apoptosis and is highly over-expressed in tumor cells that escape cell death. The assay evaluates the cellular potency of small-molecule compounds targeting regulators of the apoptosis pathway, primarily MCL-1, Bfl-1, Bcl-2, and other proteins of the Bcl-2 family. Protein-protein inhibitors disrupting the interaction of anti-apoptotic regulators with BH3-domain proteins initiate apoptosis.
The Caspase-Glo® 3/7 Assay is a luminescent assay that measures caspase-3 and −7 activities in purified enzyme preparations or cultures of adherent or suspension cells. The assay provides a proluminescent caspase-3/7 substrate, which contains the tetrapeptide sequence DEVD. This substrate is cleaved to release aminoluciferin, a substrate of luciferase used in the production of light. Addition of the single Caspase-Glo® 3/7 Reagent in an “add-mix-measure” format results in cell lysis, followed by caspase cleavage of the substrate and generation of a “glow-type” luminescent signal.
This assay uses the MOLP-8 human multiple myeloma cell line, which is sensitive to MCL-1 inhibition.
Cell cultures were maintained between 0.2 and 2.0×10^6 cells/mL. The cells were harvested by collection in 50 mL conical tubes. The cells were then pelleted at 500 g for 5 mins before removing supernatant and resuspension in fresh pre-warmed culture medium. The cells were counted and diluted as needed.
The assay reagent was prepared by transferring the buffer solution to the substrate vial and mixing. The solution may be stored for up to 1 week at 4° C. with negligible loss of signal.
Compounds were delivered in assay-ready plates (Proxiplate) and stored at −20° C.
Assays always include 1 reference compound plate containing reference compounds. The plates were spotted with 40 nL of compounds (0.5% DMSO final in cells; serial dilution; […] highest conc. 1/3 dilution, 10 doses, duplicates). The compounds were used at room temperature and 4 μL of pre-warmed media was added to all wells except column 2 and 23. The negative control was prepared by adding 1% DMSO in media. The positive control was prepared by adding the appropriate positive control compound in final concentration of […] in media. The plate was prepared by adding 4 μL negative control to column 23, 4 μL positive control to column 2 and 4 μL cell suspension to all wells in the plate. The plate with cells was then incubated at 37° C. for 2 hours. The assay signal reagent is the Caspase-Glo solution described above, and 8 μL was added to all wells. The plates were then sealed and measured after 30 minutes.
The activity of a test compound was calculated as percent change in apoptosis induction as follows: […]

[2] = target: T1, Myeloid Cell Leukemia 1 (Mcl-1) (Homo sapiens, UniProt Q07820); test: biochemical; assay type: binding
T1 construct: Terbium (Tb) label; means of attachment not described
T1 sequence (Q07820 whole entry): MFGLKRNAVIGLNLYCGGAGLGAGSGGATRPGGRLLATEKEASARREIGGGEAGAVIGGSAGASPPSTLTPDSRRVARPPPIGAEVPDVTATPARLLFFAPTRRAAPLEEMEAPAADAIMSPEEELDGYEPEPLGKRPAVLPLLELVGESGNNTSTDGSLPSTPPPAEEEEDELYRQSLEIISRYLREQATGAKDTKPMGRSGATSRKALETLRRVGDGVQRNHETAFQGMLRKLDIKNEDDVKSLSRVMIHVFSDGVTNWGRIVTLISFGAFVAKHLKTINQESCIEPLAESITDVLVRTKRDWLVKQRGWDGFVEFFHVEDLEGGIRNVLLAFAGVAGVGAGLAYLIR

[3] = read-out: MOLP8 Caspase-Glo AC50 (nM) LD value, MOLP-8 cells, 2 hours at 37° C., caspase-3/7 luminescence
[4] = Homo sapiens, MOLP-8, 2 h, read-out: MOLP8 Caspase-Glo AC50 (nM) LD value, MOLP-8 cells, 2 hours at 37° C., caspase-3/7 luminescence

SMILES | AC50 [1, 3] [nM] | AC50 [1, 4] [nM] | Ki ([2]; TB-MCL1 Ki (nM)) [nM] | Ki ([2]; read-out: TB-MCL1 Ki) [nM]
Cc1c(C(=O)O)n2c3ccc(Cl)c(c13)-c1c(nn(C)c1C)CN(C)Cc1cc(n(C)n1)CCc1cc(c3ccc(F)cc3c1)OCCC2 [Compound 9] | 1170 | – | – | –
Cc1c(C(=O)O)n2c3ccc(Cl)c(c13)-c1c(nn(C)c1C)CSCc1cc(n(C)n1)CCc1cc(c3c(F)cccc3c1)OCCC2 [Compound 5] | – | 1290 | 0.411 | –
COCC(COC)n1nc(C)c2c1CSCc1cc(n(C)n1)CCc1cc(c3ccc(F)cc3c1)OCCCn1c(C(=O)O)c(C)c3c-2c(Cl)ccc31 [Compound 20] | – | 8.8 | 0.026 | –
COCCn1nc(C)c2c1CSCc1cc(n(C)n1)CCc1cc(c3ccc(Cl)cc3c1)OCCCn1c(C(=O)O)c(C)c3c-2c(Cl)ccc31 [Compound 47] | 2710 | – | – | –
COCCn1nc(C)c2c1CSCc1cc(n(C)n1)CCc1cc(c3ccc(Cl)cc3c1)OCCCn1c(C(=O)O)c(C)c3c-2c(Cl)ccc31 [Compound 41] | 568 | – | – | –
Cc1nn(CCOCCO)c2c1-c1c(Cl)ccc3c1c(C)c(C(=O)O)n3CCCOc1cc(cc3cc(F)ccc13)CCc1cc(nn1C)CSC2 [Compound 51] | – | 87.3 | 0.013 | –
Cc1c(C(=O)O)n2c3ccc(Cl)c(c13)-c1c(nn(C)c1C)CSCc1cc(n(C)n1)CCc1cc(c3ccccc3c1)OCCC2 [Compound 2] | – | 1260 | 0.483 | –
Cc1c(C(=O)O)n2c3ccc(Cl)c(c13)-c1c(nn(C)c1C)CS(=O)(=O)Cc1cc(n(C)n1)CCc1cc(c3ccccc3c1)OCCC2 [Compound 7] | 11900 | – | 1.71 | –
Cc1c(C(=O)O)n2c3ccc(Cl)c(c13)-c1c(nn(C)c1C)CN(C)Cc1cc(n(C)n1)CCc1cc(c3ccc(F)cc3c1)OCCC2 [Compound 8] | 68.8 | – | – | –
Cc1nn(CCO)c2c1-c1c(Cl)ccc3c1c(C)c(C(=O)O)n3CCCOc1cc(cc3cc(F)ccc13)CCc1cc(nn1C)CSC2 [Compound 52] | 39.4 | – | – | –
CNCCn1nc(C)c2c1CSCc1cc(n(C)n1)CCc1cc(c3ccc(F)cc3c1)OCCCn1c(C(=O)O)c(C)c3c-2c(Cl)ccc31 (single isomer, unassigned) [Compound 69] | – | 402 | 0.014 | –
COCCOCCn1nc(C)c2c1C[S+]([O-])Cc1cc(n(C)n1)CCc1cc(c3ccc(F)cc3c1)OCCCn1c(C(=O)O)c(C)c3c-2c(Cl)ccc31 (single isomer, unassigned) [Compound 49] | – | 141 | 0.01 | –
COCCn1nc2c(c1C)-c1c(Cl)ccc3c1c(C)c(C(=O)O)n3CCCOc1cc(cc3cc(F)ccc13)CCc1cc(nn1C)CSC2 [Compound 19] | – | 20.7 | 0.035 | –
COCCOCCn1nc2c(c1C)-c1c(Cl)ccc3c1c(C)c(C(=O)O)n3CCCOc1cc(cc3c(F)c(F)ccc13)CCc1cc(nn1C)CSC2 (single isomer, unassigned) [Compound 65] | 1600 | – | 2.98 | –
COCCOCCn1nc(C)c2c1CSCc1cc(n(C)n1)CCc1cc(c3ccc(F)c(F)c3c1)OCCCn1c(C(=O)O)c(C)c3c-2c(Cl)ccc31 [Compound 62] | – | 11.3 | 0.027 | –
CNCCn1nc2c(c1C)-c1c(Cl)ccc3c1c(C)c(C(=O)O)n3CCCOc1cc(cc3cc(F)ccc13)CCc1cc(nn1C)CSC2 (single isomer, unassigned) [Compound 68] | – | 440 | 0.008 | –

SMILES | AC50 [1, 3] [nM] | AC50 [1, 4] [nM] | Ki ([2]; TB-MCL1 Ki (nM)) [nM] | Ki ([2]; read-out: TB-MCL1 Ki) [nM]
COCCOCCn1nc2c(c1C)-c1c(Cl)ccc3c1c(C)c(C(=O)O)n3CCCOc1cc(cc3c(F)c(F)ccc13)CCc1cc(nn1C)CSC2 (single isomer, unassigned) [Compound 63] | 22 | – | 0.026 | –
COCCOCCOCCn1nc2c(c1C)-c1c(Cl)ccc3c1c(C)c(C(=O)O)n3CCCOc1cc(cc3cc(F)ccc13)CCc1cc(nn1C)CSC2 [Compound 17] | – | 46.8 | 0.018 | –
Cc1nn(C)c2c1-c1c(Cl)ccc3c1c(C)c(C(=O)O)n3CCCOc1cc(cc3cc(F)ccc13)CCc1cc(nn1C)CSC2 [Compound 28] | – | 16.7 | 0.028 | –
COCCOCCOCCn1nc(C)c2c1CSCc1cc(n(C)n1)CCc1cc(c3ccc(F)cc3c1)OCCCn1c(C(=O)O)c(C)c3c-2c(Cl)ccc31 [Compound 16] | – | 19.7 | 0.024 | –
COCCOCCn1nc(C)c2c1CSCc1cc(n(C)n1)CCc1cc(c3ccc(F)c(F)c3c1)OCCCn1c(C(=O)O)c(C)c3c-2c(Cl)ccc31 (single isomer, unassigned) [Compound 64] | – | 2100 | 2.33 | –
COCC(COC)n1nc2c(c1C)-c1c(Cl)ccc3c1c(C)c(C(=O)O)n3CCCOc1cc(cc3cc(F)ccc13)CCc1cc(nn1C)CSC2 [Compound 21] | – | 49.5 | 0.066 | –
COCCn1nc(C)c2c1CSCc1cc(n(C)n1)CCc1cc(c3ccc(F)cc3c1)OCCCn1c(C(=O)O)c(C)c3c-2c(Cl)ccc31 [Compound 18] | – | 17 | 0.025 | –
Cc1nn(CCC2CCOCC2)c2c1-c1c(Cl)ccc3c1c(C)c(C(=O)O)n3CCCOc1cc(cc3cc(F)ccc13)CCc1cc(nn1C)CSC2 [Compound 22] | – | 20.1 | 0.029 | –
COCCOCCn1nc(C)c2c1CSCc1cc(n(C)n1)CCc1cc(c3ccc(F)cc3c1)OCCCn1c(C(=O)O)c(C)c3c-2c(Cl)ccc31 [Compound 31] | – | – | – | 0.015
COCCOCCn1nc(C)c2c1CS(=O)(=O)Cc1cc(n(C)n1)CCc1cc(c3ccc(F)cc3c1)OCCCn1c(C(=O)O)c(C)c3c-2c(Cl)ccc31 (single isomer, unassigned) [Compound 67] | – | 104 | 0.017 | –
Cc1c(C(=O)O)n2c3ccc(Cl)c(c13)-c1c(nn(C)c1C)CS(=O)(=O)Cc1cc(n(C)n1)CCc1cc(c3ccccc3c1)OCCC2 [Compound 6] | 931 | – | 0.059 | –
COCCOCCn1nc(C)c2c1C[S+]([O-])Cc1cc(n(C)n1)CCc1cc(c3ccc(F)cc3c1)OCCCn1c(C(=O)O)c(C)c3c-2c(Cl)ccc31 (single isomer, unassigned) [Compound 50] | 83.6 | – | 0.013 | –
Cc1c(C(=O)O)n2c3ccc(Cl)c(c13)-c1c(nn(CCC3CCOCC3)c1C)CSCc1cc(n(C)n1)CCc1cc(c3ccc(F)cc3c1)OCCC2 [Compound 23] | – | 30.6 | 0.016 | –
Cc1nn(CCCN)c2c1-c1c(Cl)ccc3c1c(C)c(C(=O)O)n3CCCOc1cc(cc3cc(F)ccc13)CCc1cc(nn1C)CSC2 [Compound 38] | – | 540 | 0.019 | –
Cc1nn(CCO)c2c1-c1c(Cl)ccc3c1c(C)c(C(=O)O)n3CCCOc1cc(cc3cc(F)ccc13)CCc1cc(nn1C)CSC2 [Compound 53] | 1250 | – | – | –

Source: US20230130109A1, “MACROCYCLIC INDOLE DERIVATIVES AS INHIBITORS OF MCL-1” (priority 2020, published 2023)
